Values quoted from earlier work, collected in patent publication US20220160797A1 (North Carolina State University, priority 2019, published 2022).

Tested on: L. acidophilus NCFM
Settings: grown on esculin compared to lactose

## O=c1ccc2cc(O[C@@H]3O[C@H](CO)[C@@H](O)[C@H](O)[C@H]3O)c(O)cc2o1 [esculin]
  up-regulation of gene lba0753: 2.3 log2
